Two molecules from US10966426B2, “Herbicidal compositions comprising phenylpyrimidines” (BASF SE, priority 2016, dated 2021) can be followed below.

Common to all, as to format: in vivo
The subject of one assay is Alopecurus myosuroides. In words: greenhouse post-emergence treatment, ALOMY. The following applies: Alopecurus myosuroides, 480 h, ALOMY, 20 DAT. The gist of the method:
(§1)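 Pot trial in loamy sand with about 3.0% humus; plants sown in place or transplanted as seedlings a few days before treatment, kept at 10-25° C or 20-35° C by species, water as solvent. Damage scored 0 (none) to 100 (full destruction) over 2 to 4 weeks; combination expectation by Colby, E=X+Y−(X·Y/100).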

Assay [1] concerns Ambrosia elatior. In words: greenhouse pre-emergence treatment, AMBEL. The conditions noted are these: Ambrosia artemisiifolia, 480 h, AMBEL, 20 DAT. The gist of the method: (§2)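 Seeds were sown per species in pots of loamy sand with about 3.0% humus, sprayed with the aqueous spray liquor directly after sowing, watered and hooded until rooted, then kept at 10-25° C. or 20-35° C. for 2 to 4 weeks. Damage was scored 0 (none) to 100 (no emergence/complete destruction).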

Another assay has as its system Papaver rhoeas. In words: greenhouse post-emergence treatment, PAPRH. The following applies: Papaver rhoeas, 480 h, PAPRH, 20 DAT. The gist of the method:
(§3)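 Each species was grown separately and treated once it reached 3 to 15 cm, using actives suspended or emulsified in water. Plants were kept at 10-25° C. or 20-35° C., depending on species. Damage is a 0–100 rating taken during 2 to 4 weeks.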

The subject of the next assay is Avena fatua. In words: greenhouse pre-emergence treatment, AVEFA. The following applies: Avena fatua, 480 h, AVEFA, 20 DAT. The gist of the method:
as §2

For another assay, the system named is Matricaria chamomilla. In words: greenhouse post-emergence treatment, MATCH. The following applies: Matricaria chamomilla, 480 h, MATCH, 20 DAT; for inhibition at 500000 µg/mL (stock): sc. The gist of the method: as §3
The subject of a further assay is Echinocloa crus-galli. In words: greenhouse post-emergence treatment, ECHCG. The following applies: 20 DAT. The gist of the method:
as §3

The next assay relates to Bromus sterilis. In words: greenhouse post-emergence treatment, BROST. The following applies: Bromus sterilis, 480 h, 20 DAT; for inhibition at 500000 µg/mL (stock): sc. The gist of the method:
as §1

For assay [2], the system named is Ambrosia elatior. In words: greenhouse post-emergence treatment, AMBEL. The conditions noted are these: Ambrosia artemisiifolia, 480 h, 20 DAT. The gist of the method: (§4)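 Seeds sown per species in pots of loamy sand; seedlings either grown in place or transplanted days before treatment. Post-emergence spray of water-based liquor at 3–15 cm height. Injury rated 0–100 over 2 to 4 weeks.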

The test system of a further assay is Setaria viridis. In words: greenhouse post-emergence treatment, SETVI. The following applies: Setaria viridis, 480 h, 20 DAT; for inhibition at 500000 µg/mL (stock): sc, SETVI. The gist of the method: as §1
The next assay relates to Polygonum convolvulus. In words: greenhouse post-emergence treatment, POLCO. The conditions noted are these: Fallopia convolvulus, 480 h, 20 DAT; for inhibition at 500000 µg/mL (stock): sc, POLCO. The gist of the method: as §3
The test system of another assay is Poa annua. In words: greenhouse post-emergence treatment, POAAN. The following applies: Poa annua, 480 h, 20 DAT, flufenacet solo 31.25 gai/ha. The gist of the method:
as §4

Another assay concerns Digitaria sanguinalis. In words: greenhouse post-emergence treatment, DIGSA. The conditions noted are these: Digitaria sanguinalis, 480 h, 20 DAT, read-out: % activity. The gist of the method:
as §1

Setting [3] is: chlorotoluron solo 125 gai/ha, read-out: % activity.
The mark [4] stands for this setting: chlorotoluron solo 250 gai/ha, read-out: % activity.
The mark [5] stands for this setting: flufenacet SC 500 g/l solo 62.5 gai/ha, read-out: % activity.
Setting [6] is: solo flufenacet (SC 500 g/l) 250 gai/ha.
Where [7] appears, read: solo flufenacet (SC 500 g/l) 31.25 gai/ha.
Setting [8] is: solo flufenacet (SC 500 g/l) 62.5 gai/ha.
The mark [9] stands for this setting: solo flufenacet (SC 500 g/l) 125 gai/ha.

On to `Cc1ccc(NC(=O)N(C)C)cc1Cl` [chlorotoluron], for which the pest or weed control at 125 g/ha in the assay on Alopecurus myosuroides (setting [3]) is 30%; with Ambrosia elatior [1] (chlorotoluron solo 125 gai/ha), 0%; in the assay on Papaver rhoeas (setting [3]), 0%; in the assay with Matricaria chamomilla (chlorotoluron solo 125 gai/ha), 50%; in the assay with Bromus sterilis (BROST, chlorotoluron solo 125 gai/ha, read-out: % activity) it was 0%. Further, the figures for the pest or weed control at 250 g/ha in the assay with Alopecurus myosuroides (setting [4]) and in the assay with Papaver rhoeas (setting [4]) were 40% and 20%, respectively. Moreover, the pest or weed control at 500 g/ha with Alopecurus myosuroides (chlorotoluron solo 500 gai/ha) was found to be 65%; with Ambrosia elatior [1] (chlorotoluron solo 500 gai/ha) it was 40%; in the assay on Papaver rhoeas (chlorotoluron solo 500 gai/ha, read-out: % activity), 25%. The pest or weed control at 62.5 g/ha with Papaver rhoeas (chlorotoluron solo 62.5 gai/ha) amounted to 0%; in the assay on Avena fatua (chlorotoluron solo 62.5 gai/ha) it was 0%; with Bromus sterilis (BROST, chlorotoluron solo 62.5 gai/ha, read-out: % activity) it was 0%. In the assay on Echinocloa crus-galli (ECHCG, chlorotoluron solo 500 gai/ha), the “% activity” value is given as 65%.

As for `CC(C)N(C(=O)COc1nnc(C(F)(F)F)s1)c1ccc(F)cc1` [flufenacet], the percent weed control (herbicidal activity, 0-100 scale) at 31.25 g/ha in the assay on Ambrosia elatior [1] (flufenacet SC 500 g/l solo 31.25 gai/ha) was found to be 0%. For the same molecule, the percent weed control (herbicidal activity, 0-100 scale) at 62.5 g/ha in the assay on Ambrosia elatior [1] (setting [5]) was determined as 0%. Further, the percent weed control (herbicidal activity, 0-100 scale) at 125 g/ha in the assay on Ambrosia elatior [1] (flufenacet SC 500 g/l solo 125 gai/ha, read-out: % activity) came to 0%. In addition, the inhibition at 62.5 g/ha in the assay with Ambrosia elatior [2] (flufenacet solo 62.5 gai/ha) came out at 0%; with Avena fatua (setting [5]), 60%; with Setaria viridis (flufenacet solo 62.5 gai/ha) it was 35%; in the assay on Polygonum convolvulus (flufenacet solo 62.5 gai/ha), 30%; with Digitaria sanguinalis (flufenacet solo 62.5 gai/ha), 10%. Also, the inhibition at 125 g/ha with Ambrosia elatior [2] (flufenacet solo 125 gai/ha) was 30%; in the assay on Setaria viridis (flufenacet solo 125 gai/ha), 55%; with Polygonum convolvulus (flufenacet solo 125 gai/ha), 30%; in the assay on Bromus sterilis (flufenacet solo 125 gai/ha) it was 65%; in the assay with Digitaria sanguinalis (flufenacet solo 125 gai/ha), 20%. Besides, the inhibition at 250 g/ha in the assay on Ambrosia elatior [2] (flufenacet solo 250 gai/ha) was determined as 70%; with Bromus sterilis (flufenacet solo 250 gai/ha) it was 80%; in the assay with Digitaria sanguinalis (flufenacet solo 250 gai/ha), 65%. In addition, the inhibition at 500000 µg/mL (stock) in the assay on Papaver rhoeas (setting [6]) was found to be 0%; with Matricaria chamomilla (setting [7]), 0%; in the assay on Matricaria chamomilla (setting [8]), 0%; in the assay on Matricaria chamomilla (setting [9]), 50%; in the assay on Setaria viridis (setting [8]) it was 35%; in the assay with Setaria viridis (setting [9]), 55%. The inhibition at 500000 µg/mL (stock) in the assay with Polygonum convolvulus (setting [7]) stood at 0%; in the assay on Polygonum convolvulus (setting [8]) it was 30%; in the assay on Polygonum convolvulus (setting [9]), 30%; in the assay with Polygonum convolvulus (setting [6]), 50%; in the assay with Bromus sterilis (BROST, solo flufenacet (SC 500 g/l) 125 gai/ha) it was 65%; in the assay with Bromus sterilis (BROST, solo flufenacet (SC 500 g/l) 250 gai/ha) it was 80%. Besides, the inhibition at 31.25 g/ha in the assay on Polygonum convolvulus (flufenacet solo 31.25 gai/ha) turned out to be 0%; with Echinocloa crus-galli (Echinochloa crus-galli, 480 h, flufenacet solo 31.25 gai/ha), 25%; with Poa annua, 70%.
